Assay: xn = mol fraction of the nth substance listed
Conditions: 298.15 K, 100 kPa

## CCn1cc[n+](C)c1.C[C@H](O)C(=O)[O-] + O
x1 = 0.0056
  electrical conductivity: 0.329 S/m
x1 = 0.0097
  speed of sound: 1567.3 m/s
  viscosity: 1.17 mPa·s
x1 = 0.0197
  speed of sound: 1631 m/s
  viscosity: 1.44 mPa·s
x2 = 0.0056
  speed of sound: 1731.4 m/s
x2 = 0.0097
  electrical conductivity: 1.76 S/m
x2 = 0.0197
  electrical conductivity: 2.71 S/m
x2 = 0.0304
  electrical conductivity: 3.15 S/m
x2 = 0.0374
  electrical conductivity: 3.28 S/m
x2 = 0.0464
  speed of sound: 1735.1 m/s
  viscosity: 110 mPa·s
x2 = 0.0739
  electrical conductivity: 3.02 S/m
x2 = 0.094
  electrical conductivity: 2.75 S/m
x2 = 0.0982
  speed of sound: 1738.6 m/s
  viscosity: 60.5 mPa·s
x2 = 0.2881
  electrical conductivity: 1.07 S/m
x2 = 0.4781
  electrical conductivity: 0.597 S/m
x2 = 0.5219
  speed of sound: 1797.9 m/s
  viscosity: 18.5 mPa·s
x2 = 0.6862
  electrical conductivity: 0.481 S/m
x2 = 0.7119
  speed of sound: 1826.6 m/s
  viscosity: 11.3 mPa·s
x2 = 0.9018
  electrical conductivity: 0.259 S/m
x2 = 0.906
  speed of sound: 1842.9 m/s
  viscosity: 5.65 mPa·s
x2 = 0.9261
  speed of sound: 1819.8 m/s
  viscosity: 4.36 mPa·s
x2 = 0.9536
  electrical conductivity: 0.289 S/m
x2 = 0.9547
  speed of sound: 1748.4 m/s
  viscosity: 2.68 mPa·s
x2 = 0.9626
  speed of sound: 1719.9 m/s
  viscosity: 2.23 mPa·s

Source: a compilation of properties of binary mixtures (doi:10.1021/jp911536z)
